Drawing on patent publication US8637443B2, “Cleaning compositions and methods comprising a hydrofluoro-olefin or hydrochlorofluoro-olefin solvent” (Honeywell International Inc., priority 2008, dated 2014), this text covers degree of toxicity for one molecule.

Structures are written as SMILES.

A short description of the series: toxicity (comparative statement, no method given). Conditions: in comparison to CF3CH═CF2 (HFO-1225zc).

Turning to `FC=C(F)C(F)(F)F` [HFO-1225yez, 1,1,1,2,3 pentafluoropropene], the degree of toxicity result is listed as “relatively low degree of toxicity”.
